In patent publication US9364550B2, “Bioactive carbon nanotube composite functionalized with B-sheet polypeptide block copolymer, and preparation method thereof” (INDUSTRY-ACADEMIC COOPERATION FOUNDATION, YONSEI UNIVERSITY, priority 2011, dated 2016):
Ends that are not written are not given here. Ebes = not defined here

Tests used:
Format in all cases: physicochemical
[1] = Circular dichroism of linear peptide and peptide/SWCNT hybrid; details: CD, molar ellipticity at 215 nm, peptide without SWCNTs
Protocol: CD spectra were measured using a Chirascan™ circular dichroism spectrometer equipped with a Peltier temperature controller (Applied Photophysics., Ltd.). The spectra were recorded from 250 nm to 190 nm using a 2 mm path-length cuvette. Scans were repeated five times and averaged. The molar ellipticity was calculated per amino acid residue. Before measurement, 5 μM solutions of peptides with and without SWCNTs were incubated for 12 h in 20 mM or 60 mM NaCl at room temperature.

[2] = Solubilization of SWCNTs by linear β-sheet block copolypeptide with sonication; details: 5 μg SWCNTs, 0.3 mL peptide solution, pure water, sonication 15 min at room temperature
Protocol: First, it was confirmed whether this potential β-sheet forming peptide can bind to and then solubilize SWCNTs in pure water. The arc-produced SWCNTs were suspended in tetrahydrofuran (THF) and equal amounts of the SWCNTs (5 μg) were added into microcentrifuge tubes. After THF evaporation, the block copolypeptide solution (0.3 mL) was added and the mixture was subjected to sonication at room temperature for 15 min.
Next, the influence of ionic strength on the peptide/SWCNT hybrid formation was investigated. The β-sheet contents of the block copolypeptide solution increased with increasing NaCl concentration, and the increase reached a plateau at a salt concentration of around 50-60 mM (see FIG. 5).
In contrast, the granules became smaller when salt was added (50 mM) and the solution was subjected to a vortex (the right image in a) of FIG. 3). Upon soniciation of both mixtures, a significant difference was evident.
An investigation was made as to whether preassembled β-sheet nanoribbons could be disintegrated and used to solubilize CNTs in the presence of SWCNTs (path 4 or path 5 in FIG. 1).

[3] = Circular dichroism of cyclic peptide with and without SWCNTs (α-helix stabilization); details: 50 μM peptide without SWCNTs
Protocol: CD spectra were measured using a Chirascan™ circular dichroism spectrometer equipped with a Peltier temperature controller (Applied Photophysics., Ltd.). The spectra were recorded from 260 nm to 200 nm using a 2 mm path-length cuvette. Scans were repeated five times and averaged. The molar ellipticity was calculated per amino acid residue. Before measurement, 50 μM solutions of peptides with and without SWCNTs were incubated for 24 h in 150 mM KF, and another 50 μM peptide solution without SWCNTs were incubated for 24 h in distilled water.
In order to verify the function of SWCNTs as protein mimics supporting the α-helical structures, CD spectra were measured on a 50 μM solution of peptide 2 of Synthesis Example 2 in pure water and a solution of peptide 2 in a 150 mM aqueous salt solution (spectra b (dotted line) and c (alternate long and two short dashes line) of FIG. 10, respectively). Peptide 2 at a concentration of 50 μM was added to a 150 mM aqueous salt solution containing 20 μg of SWCNTs, followed by sonication to form peptide/SWCNT hybrids, which were used for CD spectrum measurement (spectrum a (solid line) of FIG. 10).

Row | Substance | NaCl concentration at which the increase of β-sheet content reached a plateau [1] [mM] | peptide concentration at which most of the SWCNTs were suspended [2] | stabilization of α-helical structure ([3]; 150 mM aqueous salt solution) | stabilization of α-helical structure ([3]; pure water)
1 | GRKKRRQRRRPPQGSGGFKFEFKFEFKFE [block copolypeptide] | 50 to 60 | around 12.5 μM |  | 
2 | cyclo [-WKWEWKWEWKWEW-Ebes-GTRQARRNRRRRWRR-Ebes-C-] (chain 2 GTRQARRNRRRRWRR-{Ebes-Cys}; reading uncertain; also: cyclic: chain 1-Ebes-chain 2-Ebes-Cys, closed head-to-tail, head-to-tail to a chain's N/C-terminus, printed as cyclo [-WKWEWKWEWKWEW-Ebes-GTRQARRNRRRRWRR-Ebes-C-]) [peptide 2] |  |  | failed to stabilize the α-helical structures | failed to stabilize the α-helical structures
